Measured values taken from PubChem BioAssay (NCI).
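GI50 is the concentration that inhibits growth by half. The concentration for full growth arrest is given as TGI.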

Experiments:
Assay in all cases: NCI anticancer screen, dose series, 384-well format
A549 NSCLC = test system: A549 NSCLC
T-47D breast = test system: T-47D breast
786-0 renal = test system: 786-0 renal
OVCAR-5 ovarian = test system: OVCAR-5 ovarian
SF-539 CNS = test system: SF-539 CNS
UO-31 renal = test system: UO-31 renal
K-562 leukemia = test system: K-562 leukemia
NCI-H460 NSCLC = test system: NCI-H460 NSCLC
M14 melanoma = test system: M14 melanoma
OVCAR-8 ovarian = test system: OVCAR-8 ovarian
HCC-2998 colon = test system: HCC-2998 colon
SK-MEL-2 melanoma = test system: SK-MEL-2 melanoma
HOP-62 NSCLC = test system: HOP-62 NSCLC
SN12C renal = test system: SN12C renal
RXF 393 renal = test system: RXF 393 renal
UACC-62 melanoma = test system: UACC-62 melanoma
SK-MEL-28 melanoma = test system: SK-MEL-28 melanoma
HCT-15 colon = test system: HCT-15 colon
HOP-92 NSCLC = test system: HOP-92 NSCLC
LOX IMVI melanoma = test system: LOX IMVI melanoma
A498 renal = test system: A498 renal
BT-549 breast = test system: BT-549 breast
HL-60(TB) leukemia = test system: HL-60(TB) leukemia
HCT-116 colon = test system: HCT-116 colon
UACC-257 melanoma = test system: UACC-257 melanoma
RPMI-8226 leukemia = test system: RPMI-8226 leukemia
MDA-MB-435 melanoma = test system: MDA-MB-435 melanoma
ACHN renal = test system: ACHN renal
SF-295 CNS = test system: SF-295 CNS
COLO 205 colon = test system: COLO 205 colon
SK-MEL-5 melanoma = test system: SK-MEL-5 melanoma
NCI-H226 lung = test system: NCI-H226 lung
MDA-MB-231 breast = test system: MDA-MB-231 breast
SF-268 CNS = test system: SF-268 CNS
MCF7 breast = test system: MCF7 breast
MOLT-4 leukemia = test system: MOLT-4 leukemia
IGROV1 ovarian = test system: IGROV1 ovarian
NCI-H522 lung = test system: NCI-H522 lung
CAKI-1 renal = test system: CAKI-1 renal
NCI-H322M lung = test system: NCI-H322M lung
MDA-MB-468 breast = test system: MDA-MB-468 breast
MALME-3M melanoma = test system: MALME-3M melanoma
KM12 colon = test system: KM12 colon
U251 glioblastoma = test system: U251 glioblastoma
SNB-19 CNS = test system: SNB-19 CNS
OVCAR-3 ovarian = test system: OVCAR-3 ovarian
HT29 colon = test system: HT29 colon
SR leukemia = test system: SR leukemia
NCI/ADR-RES ovarian = test system: NCI/ADR-RES ovarian
SK-OV-3 ovarian = test system: SK-OV-3 ovarian
SW-620 colon = test system: SW-620 colon
TK-10 renal = test system: TK-10 renal
DU-145 prostate = test system: DU-145 prostate
OVCAR-4 ovarian = test system: OVCAR-4 ovarian
PC-3 prostate = test system: PC-3 prostate
CCRF-CEM leukemia = test system: CCRF-CEM leukemia
NCI-H23 lung = test system: NCI-H23 lung

CNC(=O)n1ccc2cc(Oc3ccnc(NC(=O)c4ccc(C5CCN(CCO)CC5)cc4)c3)c(OCCOC)cc21
GI50 (A549 NSCLC): 3210 nM
TGI (A549 NSCLC): 11100 nM
GI50 (T-47D breast): 1080 nM
TGI (T-47D breast): 2300 nM
GI50 ([…]-0 renal): 1120 nM
TGI (786-0 renal): 2430 nM
GI50 (OVCAR-5 ovarian): 1970 nM
TGI (OVCAR-5 ovarian): 7920 nM
GI50 (SF-539 CNS): 1020 nM
TGI (SF-539 CNS): 2190 nM
GI50 (UO-31 renal): 498 nM
TGI (UO-31 renal): 1740 nM
GI50 (K-562 leukemia): 186 nM
TGI (K-562 leukemia): 451 nM
GI50 (NCI-H460 NSCLC): 1650 nM
TGI (NCI-H460 NSCLC): 3100 nM
GI50 (M14 melanoma): 1910 nM
TGI (M14 melanoma): 3330 nM
GI50 (OVCAR-8 ovarian): 1820 nM
TGI (OVCAR-8 ovarian): 3300 nM
GI50 (HCC-2998 colon): 2240 nM
TGI (HCC-2998 colon): 4070 nM
GI50 (SK-MEL-2 melanoma): 1590 nM
TGI (SK-MEL-2 melanoma): 2990 nM
GI50 (HOP-62 NSCLC): 2120 nM
TGI (HOP-62 NSCLC): 4610 nM
GI50 (SN12C renal): 3500 nM
TGI (SN12C renal): 9770 nM
GI50 (RXF 393 renal): 304 nM
TGI (RXF 393 renal): 913 nM
GI50 (UACC-62 melanoma): 1750 nM
TGI (UACC-62 melanoma): 3160 nM
GI50 (SK-MEL-28 melanoma): 1840 nM
TGI (SK-MEL-28 melanoma): 3250 nM
GI50 (HCT-15 colon): 1670 nM
TGI (HCT-15 colon): 3180 nM
GI50 (HOP-92 NSCLC): 1650 nM
TGI (HOP-92 NSCLC): 3550 nM
GI50 (LOX IMVI melanoma): 1720 nM
TGI (LOX IMVI melanoma): 3110 nM
GI50 (A498 renal): 1260 nM
TGI (A498 renal): 2960 nM
GI50 (BT-549 breast): 1370 nM
TGI (BT-549 breast): 3060 nM
GI50 (HL-60(TB) leukemia): 2480 nM
TGI (HL-60(TB) leukemia): 3950 nM
GI50 (HCT-116 colon): 1320 nM
TGI (HCT-116 colon): 2650 nM
GI50 (UACC-257 melanoma): 1420 nM
TGI (UACC-257 melanoma): 2730 nM
GI50 (RPMI-8226 leukemia): 1520 nM
TGI (RPMI-8226 leukemia): 2860 nM
GI50 (MDA-MB-435 melanoma): 2250 nM
TGI (MDA-MB-435 melanoma): 4050 nM
GI50 (ACHN renal): 1730 nM
TGI (ACHN renal): 3310 nM
GI50 (SF-295 CNS): 1820 nM
TGI (SF-295 CNS): 3760 nM
GI50 (COLO 205 colon): 2270 nM
TGI (COLO 205 colon): 5230 nM
GI50 (SK-MEL-5 melanoma): 1480 nM
TGI (SK-MEL-5 melanoma): 2810 nM
GI50 (NCI-H226 lung): 66.3 nM
TGI (NCI-H226 lung): 2180 nM
GI50 (MDA-MB-231 breast): 1650 nM
TGI (MDA-MB-231 breast): 3170 nM
GI50 (SF-268 CNS): 1770 nM
TGI (SF-268 CNS): 3650 nM
GI50 (MCF7 breast): 1350 nM
TGI (MCF7 breast): 3300 nM
GI50 (MOLT-4 leukemia): 1400 nM
TGI (MOLT-4 leukemia): 2700 nM
GI50 (IGROV1 ovarian): 3480 nM
TGI (IGROV1 ovarian): 14000 nM
GI50 (NCI-H522 lung): 2130 nM
TGI (NCI-H522 lung): 3850 nM
GI50 (CAKI-1 renal): 2770 nM
TGI (CAKI-1 renal): 5470 nM
GI50 (NCI-H322M lung): 1830 nM
TGI (NCI-H322M lung): 4690 nM
GI50 (MDA-MB-468 breast): 1860 nM
TGI (MDA-MB-468 breast): 3280 nM
GI50 (MALME-3M melanoma): 1830 nM
TGI (MALME-3M melanoma): 3240 nM
GI50 (KM12 colon): 1840 nM
TGI (KM12 colon): 3650 nM
GI50 (U251 glioblastoma): 1560 nM
TGI (U251 glioblastoma): 3110 nM
GI50 (SNB-19 CNS): 3610 nM
TGI (SNB-19 CNS): 11800 nM
GI50 (OVCAR-3 ovarian): 2030 nM
TGI (OVCAR-3 ovarian): 3650 nM
GI50 (HT29 colon): 171 nM
TGI (HT29 colon): 699 nM
GI50 (SR leukemia): 830 nM
TGI (SR leukemia): 2050 nM
GI50 (NCI/ADR-RES ovarian): 4830 nM
TGI (NCI/ADR-RES ovarian): 16600 nM
GI50 (SK-OV-3 ovarian): 1830 nM
TGI (SK-OV-3 ovarian): 3620 nM
GI50 (SW-620 colon): 3010 nM
TGI (SW-620 colon): 4960 nM
GI50 (TK-10 renal): 1960 nM
TGI (TK-10 renal): 4440 nM
GI50 (DU-145 prostate): 3600 nM
TGI (DU-145 prostate): 12400 nM
GI50 (OVCAR-4 ovarian): 1380 nM
TGI (OVCAR-4 ovarian): 2830 nM
GI50 (PC-3 prostate): 2310 nM
TGI (PC-3 prostate): 4650 nM
GI50 (CCRF-CEM leukemia): 1740 nM
TGI (CCRF-CEM leukemia): 3130 nM
GI50 (NCI-H23 lung): 3860 nM
TGI (NCI-H23 lung): 13400 nM
